Measured values taken from patent publication US8987167B2, “Low volatile amine salts of anionic pesticides” (BASF SE, priority 2009, dated 2015).
Read-outs that look alike come from different tables or passages of the source.

Tests used:
[1] = Volatility determined by TGA (thermal gravimetric analysis); type: physicochemical
Method: The volatility of the aqueous solutions of dicamba (480 g/l) or 2,4-D (250 g/l) as prepared in Example 1 was determined by analyzing the wt % loss per minute as calculated by the slope between 400 min and 1200 min of a TGA (thermal gravimetric analysis) analysis. The measurement conditions on a TA Instrument TGA Q50 were as follows: Pan type: Platinum; sample size 25 μl leveling uniformly on pan surface, balance purge flow 40 ml/min; sample purge flow 60 ml/min; temperature procedure: Start at 20° C., ramp 10° C./min to 100° C., then isothermal for 1200 min.
The volatility of the aqueous solutions of glyphosate salts as prepared in Example 6 was determined by analyzing the wt % loss per minute as described in Example 3.

[2] = pH 7
[3] = 30% humidity; for Volatility after 2 weeks (wt % loss) / Volatility after 4 weeks (wt % loss): Petri dish, 480 g/l solution diluted 1:50, 50° C., forced air flow, loss of dicamba acid by HPLC
Method: A dicamba sample of the aqueous solutions of dicamba (480 g/l) as prepared in Example 1 (Table 1, entry 2) was diluted with distilled water in a ratio of 1:50. To help spreading of the samples uniformly on the surface of the plate, Silwet L-77 was added (0.1 wt %). A total of 300 μl of this diluted sample was applied per Petri dish (diameter 5 cm). The dishes were kept at an environment chamber (Barnstead Environ-Cab Lab-line 680A) with forced air flow (air vent out) up to one month at 50° C. and 30% humidity. Afterwards the plates were extracted with acetic acid/methanol and the pesticide quantified by HPLC (Columbus C18 column) to determine the volatile loss of dicamba acid.

[4] = Dicamba salts, 480 g/l, TGA, normalized, dicamba acid = 100.0
[5] = Dicamba salts, aqueous solution 480 g/l, TGA isothermal at 100° C., slope between 400 min and 1200 min
[6] = soybean injury (epinasty and stunting) 14 days after 24 h vapour exposure to Petri dishes treated with 4480 g active ingredient per ha, normalized to 30% for the 2-(-aminoethoxy)ethanol salt
[7] = 2,4-D salts, 250 g/l, TGA, normed, dimethylamine salt = 100.0
[8] = 2,4-D salts, aqueous solution 250 g/l, TGA isothermal at 100° C., slope between 400 min and 1200 min
[9] = Glyphosate salts, aqueous solution 480 g/l, TGA

Method for soybean plants: Soybeans were grown in a 3 inch (7.6 cm) pots for approximately 10 days until the first trifoliate is unfolded (not fully expanded). […] Immediately after treatment, eight Petri dishes and two soybean plants were placed in a tray (25×51 cm) and covered with a plastic dome (25×51×20 cm). The covered trays were placed in a greenhouse with temperature maintained at 25-35° C. and 50-80% humidity. After 24 h of exposure, the plastic dome was removed.

CN(C)CCCN(C)CCCN(C)C.COc1c(Cl)ccc(Cl)c1C(=O)O [Dicamba salt: Jeffcat ZR-40]
Volatility (normalized) [1, 4]: 5.0 | Volatility (wt % loss per min) [1, 5]: 0.0030 wt % loss per min

CN(CCCN)CCCN.O=C(O)CNCP(=O)(O)O
Volatility (wt % loss per min) [1]: 0.002 wt % loss per min

COc1c(Cl)ccc(Cl)c1C(=O)O.NCCN1CCNCC1 [Dicamba salt: Aminoethylpiperazine]
Volatility (normalized) [1, 4]: 0.4 | Volatility (wt % loss per min) [1, 5]: 0.0002 wt % loss per min | Injury (%) (soybean plants; [6]): 19%

CN(C)CCCNCCCN(C)C.COc1c(Cl)ccc(Cl)c1C(=O)O [Dicamba salt: Jeffcat ® Z-130]
Volatility (normalized) [1, 4]: 2.9 | Volatility (wt % loss per min) [1, 5]: 0.0017 wt % loss per min | Injury (%) (soybean plants; [6]): 5%

CC1(C)CC(N)CC(C)(CN)C1.COc1c(Cl)ccc(Cl)c1C(=O)O [Dicamba salt: Isophorone diamine]
Volatility (normalized) [1]: 0.4 | Volatility (wt % loss per min) [1, 5]: 0.0002 wt % loss per min | Injury (%) (soybean plants; [6]): 19%

COc1c(Cl)ccc(Cl)c1C(=O)O.NCCCN1CCOCC1 [aminopropylmorpholine (APM) salt of dicamba, reference compound]
Volatility expected for a concentration of 480 g/l ([1]; dicamba salt, 480 g/l (solution could not be prepared), compared with 0.0021 wt % loss per min at 300 g/l): expected to be higher | Volatility (wt % loss per min) ([1]; dicamba salt, aqueous solution 300 g/l, TGA): 0.0021 wt % loss per min | solubility in water [2]: ≤ 300 mg/mL

CNC.O=C(O)COc1ccc(Cl)cc1Cl [2,4-D salt: Dimethylamine, reference compound]
Volatility (normed) [1]: 100.0 | Volatility (wt % loss per min) [1]: 0.006 wt % loss per min

CN(C)CCCNCCCN(C)C.O=C(O)COc1ccc(Cl)cc1Cl [2,4-D salt: Jeffcat ® Z-130]
Volatility (normed) [1, 7]: 14.8 | Volatility (wt % loss per min) [1, 8]: 0.0008 wt % loss per min

NCCNCCN.O=C(O)CNCP(=O)(O)O [Glyphosate salt: Diethylenetriamine, glyphosate diethylenetriamine salt, reference compound]
Volatility (wt % loss per min) [1, 9]: 0.002 wt % loss per min

CC1(C)CC(N)CC(C)(CN)C1.O=C(O)CNCP(=O)(O)O (stereo not drawn) [Glyphosate salt: Isophorone diamine]
Volatility (wt % loss per min) [1, 9]: 0.002 wt % loss per min

NCCNCCN.O=C(O)COc1ccc(Cl)cc1Cl [2,4-D salt: Diethylenetriamine]
Volatility (normed) [1, 7]: 13.7 | Volatility (wt % loss per min) [1, 8]: 0.0008 wt % loss per min

COc1c(Cl)ccc(Cl)c1C(=O)O [Dicamba acid, dicamba, reference compound]
Volatility (normalized) [1, 4]: 100.0 | Volatility (wt % loss per min) [1, 5]: 0.060 wt % loss per min | Injury (%) (soybean plants; [6]): 67%

COc1c(Cl)ccc(Cl)c1C(=O)O.NCCOCCO [Dicamba salt: 2-(-Aminoethoxy)ethanol, dicamba 2-(-Aminoethoxy)ethanol salt, reference compound]
Volatility (normalized) [1, 4]: 5.4 | Volatility (wt % loss per min) [1, 5]: 0.0032 wt % loss per min | Volatility after 2 weeks (wt % loss) [3]: 29.3 wt % loss | Volatility after 4 weeks (wt % loss) [3]: 57.0 wt % loss | Injury (%) (soybean plants; [6]): 30%

COc1c(Cl)ccc(Cl)c1C(=O)O.NCCNCCO [Dicamba salt: Aminoethylethanolamine, aminoethylethanolamine salt of dicamba]
Volatility (normalized) [1, 4]: 3.1 | Volatility (wt % loss per min) [1, 5]: 0.0018 wt % loss per min | volatility compared to commercial dicamba salt formulations (Petri dish) ([3]; 50° C., up to one month): reduced volatility compared to commercial dicamba salt formulations | Volatility after 2 weeks (wt % loss) [3]: 6.2 wt % loss | Volatility after 4 weeks (wt % loss) [3]: 20.6 wt % loss | Injury (%) (soybean plants; [6]): 5%

COc1c(Cl)ccc(Cl)c1C(=O)O.NCCNCCN [Dicamba salt: Diethylenetriamine]
Volatility (normalized) [1, 4]: 0.7 | Volatility (wt % loss per min) [1, 5]: 0.0004 wt % loss per min | Injury (%) (soybean plants; [6]): 14%

NCCNCCO.O=C(O)COc1ccc(Cl)cc1Cl [2,4-D salt: Aminoethylethanolamine]
Volatility (normed) [1, 7]: 35.7 | Volatility (wt % loss per min) [1, 8]: 0.002 wt % loss per min

CNC.COc1c(Cl)ccc(Cl)c1C(=O)O [Dicamba salt: Dimethylamine, dicamba dimethylamine salt, reference compound]
Volatility (normalized) [1]: 17.8 | Volatility (wt % loss per min) [1]: 0.011 wt % loss per min | Volatility after 2 weeks (wt % loss) [3]: 98.7 wt % loss | Volatility after 4 weeks (wt % loss) [3]: 100 wt % loss | Injury (%) (soybean plants; in vivo): 48%

NCCN1CCNCC1.O=C(O)CNCP(=O)(O)O [Glyphosate salt: Aminoethylpiperazine]
Volatility (wt % loss per min) [1, 9]: 0.002 wt % loss per min

CN(CCCN)CCCN.COc1c(Cl)ccc(Cl)c1C(=O)O
Volatility (normalized) [1]: 0.5 | Volatility (wt % loss per min) [1]: 0.0003 wt % loss per min | Injury (%) (soybean plants; in vivo): 7%
